Data published in ChEMBL document CHEMBL4765481, “Sialyltransferase Inhibitors Suppress Breast Cancer Metastasis” (J Med Chem, 2021).
The source made the active and inactive calls. The calls are words filed in the database; no cut-off is given here.

What was measured:
[1] = target: T1, Beta-galactoside alpha-2,6-sialyltransferase 1 (Homo sapiens, UniProt P15907); assay: Inhibition of human alpha-2,6-ST6GAL1 assessed as reduction in sialylated-product formation using Gal-beta1-4GlcNac and CMP-NeuSAc incubated for 15 mins by reverse-phase HPLC analysis
T1 sequence (P15907 whole entry): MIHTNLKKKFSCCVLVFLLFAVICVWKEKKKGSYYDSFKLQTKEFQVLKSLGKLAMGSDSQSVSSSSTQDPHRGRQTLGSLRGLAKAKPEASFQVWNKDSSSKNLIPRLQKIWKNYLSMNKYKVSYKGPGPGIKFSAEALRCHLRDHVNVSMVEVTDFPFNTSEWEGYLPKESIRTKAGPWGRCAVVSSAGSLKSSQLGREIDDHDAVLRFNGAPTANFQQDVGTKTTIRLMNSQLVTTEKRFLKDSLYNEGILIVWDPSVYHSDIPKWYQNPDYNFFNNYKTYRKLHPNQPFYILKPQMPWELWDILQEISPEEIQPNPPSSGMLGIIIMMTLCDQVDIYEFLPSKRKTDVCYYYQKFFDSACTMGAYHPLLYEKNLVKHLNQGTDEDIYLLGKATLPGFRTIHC

[2] = Toxicity in human MDA-MB-231 cells assessed as cell survival at >60 uM relative to control; assay type: cell-based; conditions: read-out: Survival
[3] = test system: MDA-MB-231; assay: Inhibition of serum-induced cell migration of human MDA-MB-231 cells incubated for 16 hrs by Boyden chamber assay; assay type: functional, cell-based; conditions: MDA-MB-231, 16 h
[4] = Toxicity in BALB/c mouse xenografted with luciferase-tagged human MDA-MB-231 cells at 10 mg/kg/3 days, ip measured after 8 weeks by blood tests; assay type: organism-based; conditions: in vivo, 1344 h
[5] = species on record: Rattus norvegicus; assay: Selectivity ratio of inhibition of rat alpha-2,3-O-ST3GALI at 1000 uM to IC50 for inhibition of rat alpha-2,3-N-ST3GALIII
[6] = test system: MDA-MB-231; assay: Inhibition of Sialyltransferase in human MDA-MB-231 cells assessed as reduction in IkappaB-alpha Ser32 phosphorylation level at 10 to 20 uM incubated for 48 hrs by immunoblot analysis; assay type: cell-based; conditions: dose 10-20 µM
[7] = Apparent permeability at pH 7.4 by PAMPA
[8] = test system: MDA-MB-231; assay: Antitumor activity against luciferase-tagged human MDA-MB-231 cells xenografted in BALB/c mouse assessed as reduction in number of metastatic foci in lungs at 10 mg/kg/3 days, ip measured after 8 weeks by histological analysis; assay type: functional, organism-based
[9] = test system: MDA-MB-231; assay: Inhibition of Sialyltransferase in human MDA-MB-231 cells assessed as decrease p-talin-1 association with integrins beta1 and beta 3 after 48 hrs by immunofluorescence and coimmunoprecipitation assay; assay type: cell-based
[10] = species on record: Danio rerio; assay: Antiangiogenic activity in transgenic zebrafish embryos assessed as suppression of intersegmental vessels formation at 20 uM measured at 30 hrs postfertilization by fluorescence microscopy; assay type: functional, organism-based
[11] = test system: MDA-MB-231; assay: Inhibition of Sialyltransferase in human MDA-MB-231 cells assessed as suppression of sialylation of integrin subunit beta1/beta3/beta4/beta5 at 10 to 20 um after 48 hrs by Western blot analysis; assay type: cell-based; conditions: dose 10-20 µM
[12] = test system: MDA-MB-231; assay: Inhibition of Sialyltransferase in human MDA-MB-231 cells assessed as reduction in NFkappaB Ser536 phosphorylation level at 10 to 20 uM incubated for 48 hrs by immunoblot analysis; assay type: cell-based; conditions: dose 10-20 µM
[13] = test system: MDA-MB-231; assay: Inhibition of Sialyltransferase in human MDA-MB-231 cells assessed as reduction in FAK Tyr397 phosphorylation level at 10 to 20 uM incubated for 48 hrs by immunoblot analysis; assay type: cell-based; conditions: dose 10-20 µM
[14] = test system: MDA-MB-231; assay: Antiangiogenesis activity against luciferase-tagged human MDA-MB-231 cells xenografted in BALB/c mouse assessed as reduction in cell proliferation by measuring Ki67 expression at 10 mg/kg/3 days, ip measured after 8 weeks by immunostaining; assay type: functional, organism-based
[15] = Toxicity in transgenic zebrafish embryos assessed as effect on gross morphology at 20 uM measured at 30 hrs postfertilization by fluorescence microscopy; set-up: species or system Danio rerio; conditions: in vivo
[16] = test system: MDA-MB-231; assay: Inhibition of serum-induced cell migration of human MDA-MB-231 cells at 20 uM incubated for 16 hrs by Boyden chamber assay; assay type: functional, cell-based
[17] = test system: MDA-MB-231; assay: Antitumor activity against luciferase-tagged human MDA-MB-231 cells xenografted in BALB/c mouse assessed as induction of tumor suppression at 10 mg/kg/3 days, ip measured after 8 weeks; assay type: functional, organism-based
[18] = test system: MDA-MB-231; assay: Antitumor activity against luciferase-tagged human MDA-MB-231 cells xenografted in BALB/c mouse assessed as reduction in metastatic nodules in lymph node at 10 mg/kg/3 days, ip measured after 8 weeks by H and E staining based histological analysis; assay type: functional, organism-based
[19] = test system: MDA-MB-231; assay: Antiangiogenesis activity against luciferase-tagged human MDA-MB-231 cells xenografted in BALB/c mouse assessed as reduction in number of vessels surrounding tumor nodules by measuring CD31 expression at 10 mg/kg/3 days, ip measured after 8 weeks by immunostaining; assay type: functional, organism-based
[20] = test system: MDA-MB-231; assay: Inhibition of Sialyltransferase in human MDA-MB-231 cells assessed as reduction in paxillin Tyr118 phosphorylation level at 10 to 20 uM incubated for 48 hrs by immunoblot analysis; assay type: cell-based; conditions: dose 10-20 µM
[21] = test system: MDA-MB-231; assay: Inhibition of Sialyltransferase in human MDA-MB-231 cells assessed as reduction in FAK Tyr576/577 phosphorylation level at 10 to 20 uM incubated for 48 hrs by immunoblot analysis; assay type: cell-based; conditions: dose 10-20 µM
[22] = target: T2, Sialyltransferase ST3Gal-I (Rattus norvegicus) (UniProt Q6H8N0); assay: Inhibition of rat alpha-2,3-O-ST3GALI assessed as reduction in sialylated-product formation at 500 uM using p-nitrophenyl T-antigen and CMP-NeuSAc incubated for 15 mins by reverse-phase HPLC analysis relative to control
T2 sequence (whole entry): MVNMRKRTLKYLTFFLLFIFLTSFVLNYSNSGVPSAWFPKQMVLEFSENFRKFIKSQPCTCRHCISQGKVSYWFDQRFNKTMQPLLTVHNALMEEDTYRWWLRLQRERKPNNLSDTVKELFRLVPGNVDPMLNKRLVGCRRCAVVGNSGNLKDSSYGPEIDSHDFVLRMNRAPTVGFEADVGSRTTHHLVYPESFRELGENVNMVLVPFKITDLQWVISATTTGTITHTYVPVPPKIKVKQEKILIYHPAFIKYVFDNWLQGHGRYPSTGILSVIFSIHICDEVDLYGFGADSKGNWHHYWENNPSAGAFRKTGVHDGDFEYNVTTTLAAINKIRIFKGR

[23] = Toxicity in BALB/c mouse xenografted with luciferase-tagged human MDA-MB-231 cells assessed as effect on body weight at 10 mg/kg/3 days, ip measured after 8 weeks; assay type: organism-based; conditions: in vivo, 1344 h
[24] = species on record: Danio rerio; assay: Antiangiogenic activity in transgenic zebrafish embryos assessed as suppression of caudal vein plexus formation at 20 uM measured at 30 hrs postfertilization by fluorescence microscopy; assay type: functional, organism-based
[25] = species on record: Rattus norvegicus; assay: Selectivity ratio of inhibition of rat alpha-2,3-O-ST3GALI at 500 uM to IC50 for inhibition of rat alpha-2,3-N-ST3GALIII
[26] = test system: MDA-MB-231; assay: Antitumor activity against luciferase-tagged human MDA-MB-231 cells xenografted in BALB/c mouse assessed as induction of delayed lung metastasis at 10 mg/kg/3 days, ip measured after 8 weeks; assay type: functional, organism-based

## C[C@H](CCC(=O)OCCOCCOCCN=[N+]=[N-])[C@H]1CC[C@H]2[C@@H]3CC[C@@H]4C[C@H](OC(=O)[C@H](CC(=O)O)Nc5ccc([N+](=O)[O-])c6nonc56)CC[C@]4(C)[C@H]3CC[C@]12C
[1]
  IC50: 3.6 µM
[2]
  viability: > 90%
[3]
  IC50: 10.6 µM
[4]
  Activity: Non-Toxic
[5]
  Selectivity ratio: < 575
[6]
  inhibition: Active
[7]
  Papp: 3.6 ×10⁻⁶ cm/s
[8]
  Activity: Active
[9]
  inhibition: Dose-dependent effect
[10]
  Activity: Active
[11]
  inhibition: Active
[12]
  inhibition: Active
[13]
  inhibition: Dose-dependent effect
[14]
  Activity: Active
[15]
  Activity: Non-Toxic
[16]
  inhibition: Active
[17]
  Activity: Active
[18]
  Activity: Active
[19]
  Activity: Active
[20]
  inhibition: Dose-dependent effect
[21]
  inhibition: Dose-dependent effect
[22]
  inhibition: 0%
[23]
  Activity: Non-Toxic
[24]
  Activity: Active
[25]
  Selectivity ratio: > 287
[26]
  Activity: Active
